Activity calls are given as the source filed them. No cut-off for these calls is given here.
Tests used:
HepG2 [1] = assay: Antiproliferative activity against human HepG2 cells after 48 hrs by MTT assay; assay type: functional, cell-based; conditions: HepG2, 48 h
[2] = Antiproliferative activity against human BCG823 cells after 48 hrs by MTT assay; assay type: functional, cell-based; conditions: BCG823, 48 h
A549 = assay: Antiproliferative activity against human A549 cells after 48 hrs by MTT assay; assay type: functional, cell-based; conditions: A549, 48 h
HepG2 [3] = assay: Induction of apoptosis in human HepG2 cells assessed as chromatin condensation at 0.75 to 3 uM after 72 hrs by DAPI staining-based fluorescent microscopic analysis; assay type: functional, cell-based
HepG2 [4] = assay: Induction of apoptosis in human HepG2 cells assessed as necrotic cells at 1.5 uM after 72 hrs by annexin V and propidium iodide staining-based flow cytometric analysis (reference value: 2.7 +/- 0.1%); assay type: functional
HepG2 [5] = assay: Induction of apoptosis in human HepG2 cells assessed as late apoptotic cells at 1.5 uM after 72 hrs by annexin V and propidium iodide staining-based flow cytometric analysis (reference value: 1.4 %); assay type: functional
HepG2 [6] = assay: Induction of apoptosis in human HepG2 cells assessed as early apoptotic cells at 1.5 uM after 72 hrs by annexin V and propidium iodide staining-based flow cytometric analysis (reference value: 1.4 +/- 0.1%); assay type: functional
HepG2 [7] = assay: Induction of apoptosis in human HepG2 cells assessed as necrotic cells at 3 uM after 72 hrs by annexin V and propidium iodide staining-based flow cytometric analysis (reference value: 2.7 +/- 0.1%); assay type: functional
HepG2 [8] = assay: Induction of apoptosis in human HepG2 cells assessed as karyopyknosis at 0.75 to 3 uM after 72 hrs by DAPI staining-based fluorescent microscopic analysis; assay type: functional, cell-based
HepG2 [9] = assay: Induction of apoptosis in human HepG2 cells assessed as necrotic cells at 0.75 uM after 72 hrs by annexin V and propidium iodide staining-based flow cytometric analysis (reference value: 2.7 +/- 0.1%); assay type: functional
HepG2 [10] = assay: Induction of apoptosis in human HepG2 cells assessed as viable cells at 1.5 uM after 72 hrs by annexin V and propidium iodide staining-based flow cytometric analysis (reference value: 94.5 +/- 0.6%); assay type: functional; conditions: HepG2, 72 h, read-out: Activity
HepG2 [11] = assay: Induction of apoptosis in human HepG2 cells assessed as viable cells at 0.75 uM after 72 hrs by annexin V and propidium iodide staining-based flow cytometric analysis (reference value: 94.5 +/- 0.6%); assay type: functional; conditions: HepG2, 72 h, read-out: Activity
HepG2 [12] = assay: Induction of apoptosis in human HepG2 cells assessed as early apoptotic cells at 0.75 uM after 72 hrs by annexin V and propidium iodide staining-based flow cytometric analysis (reference value: 1.4 +/- 0.1%); assay type: functional
HepG2 [13] = assay: Induction of apoptosis in human HepG2 cells assessed as early apoptotic cells at 3 uM after 72 hrs by annexin V and propidium iodide staining-based flow cytometric analysis (reference value: 1.4 +/- 0.1%); assay type: functional
HepG2 [14] = assay: Induction of apoptosis in human HepG2 cells assessed as late apoptotic cells at 3 uM after 72 hrs by annexin V and propidium iodide staining-based flow cytometric analysis (reference value: 1.4 %); assay type: functional
HepG2 [15] = assay: Induction of apoptosis in human HepG2 cells assessed as viable cells at 3 uM after 72 hrs by annexin V and propidium iodide staining-based flow cytometric analysis (reference value: 94.5 +/- 0.6%); assay type: functional; conditions: HepG2, 72 h, read-out: Activity
HepG2 [16] = assay: Induction of apoptosis in human HepG2 cells assessed as late apoptotic cells at 0.75 uM after 72 hrs by annexin V and propidium iodide staining-based flow cytometric analysis (reference value: 1.4 %); assay type: functional

Row | SMILES | IC50 (HepG2 [1]) [µM] | IC50 [2] [µM] | IC50 (A549) [µM] | also measured
1 | COc1cc2oc(-c3ccccc3)cc(=O)c2c2c1OCCCCO2 | > 100 | > 100 | > 100 | 
2 | O=c1cc(-c2ccccc2)oc2cc(OCc3ccccc3)c(OCCCN3CCCC3)c(O)c12 | 4.2 | > 100 | 1.4 | 
3 | CCN(CC)CCCCOc1c(OC)cc2oc(-c3ccccc3)cc(=O)c2c1O | 7.1 | 17.4 | 35 | 
4 | O=c1cc(-c2ccccc2)oc2cc(OCc3ccccc3)c(OCCCN3CCOCC3)c(O)c12 | 75.8 | 51.4 | > 100 | 
5 | CCN(CC)CCCOc1c(OC)cc2oc(-c3ccccc3)cc(=O)c2c1O | 3.7 | 5.7 | 4.9 | 
6 | CCN(CC)CCCCOc1c(OCc2ccccc2)cc2oc(-c3ccccc3)cc(=O)c2c1O | 2.2 | 4.2 | 1.8 | 
7 | COc1cc2oc(-c3ccccc3)cc(=O)c2c(O)c1OCCCCN1CCCC1 | 4.9 | 10.6 | 13 | 
8 | O=c1cc(-c2ccccc2)oc2cc(OCc3ccccc3)c(OCCCCN3CCOCC3)c(O)c12 | > 100 | 83.6 | > 100 | 
9 | CN1CCN(CCCCOc2c(OCc3ccccc3)cc3oc(-c4ccccc4)cc(=O)c3c2O)CC1 | 2.5 | 7.2 | 4.4 | 
10 | CN1CCN(CCCOc2c(OCc3ccccc3)cc3oc(-c4ccccc4)cc(=O)c3c2O)CC1 | 2.4 | 4.1 | 1.3 | 
11 | O=c1cc(-c2ccccc2)oc2cc(OCc3ccccc3)c(OCCCCN3CCCC3)c(O)c12 | 2 | 3.2 | 0.8 | Activity (HepG2 [3]): Active; Activity (HepG2 [4]): 11.1%; Activity (HepG2 [5]): 6.3%; Activity (HepG2 [6]): 5.1%; Activity (HepG2 [7]): 8.3%; Activity (HepG2 [8]): Active; Activity (HepG2 [9]): 5.2%; viability at 1.5 µM (HepG2 [10]): 77.5%; viability at 0.75 µM (HepG2 [11]): 89.5%; Activity (HepG2 [12]): 3.2%; Activity (HepG2 [13]): 30%; Activity (HepG2 [14]): 50.6%; viability at 3 µM (HepG2 [15]): 11.1%; Activity (HepG2 [16]): 2.2%
12 | COc1cc2oc(-c3ccccc3)cc(=O)c2c(O)c1OCCCN1CCOCC1 | 9.2 | 43.1 | 14 | 
13 | O=c1cc(-c2ccccc2)oc2cc(OCc3ccccc3)c(OCCCN3CCCCC3)c(O)c12 | 2.2 | 4.6 | 3.1 | 
14 | CN1CCN(CCCCOc2c(O)cc3oc(-c4ccccc4)cc(=O)c3c2O)CC1 | 93.7 | 82.9 | > 100 | 
15 | COc1cc2oc(-c3ccccc3)cc(=O)c2c2c1OCCCO2 | 69 | > 100 | 51.3 | 
16 | O=c1cc(-c2ccccc2)oc2cc(O)c(OCCCN3CCOCC3)c(O)c12 | 86.2 | 88.3 | > 100 | 
17 | COc1cc2oc(-c3ccccc3)cc(=O)c2c(O)c1OCCCCN1CCOCC1 | 19.8 | 27.2 | 25 | 
18 | O=c1cc(-c2ccccc2)oc2cc(O)c(OCCCCN3CCCCC3)c(O)c12 | > 100 | 52.7 | 75 | 
19 | O=c1cc(-c2ccccc2)oc2cc(O)c(O)c(O)c12 [BAICALEIN] | 28.3 | 19.1 | 13 | 
20 | COc1cc2oc(-c3ccccc3)cc(=O)c2c(O)c1OCCCN1CCCCC1 | 22.3 | 25.3 | 17 | 
21 | COc1cc2oc(-c3ccccc3)cc(=O)c2c(O)c1OCCCCN1CCCCC1 | 21 | 21.9 | 34 | 
22 | O=c1cc(-c2ccccc2)oc2cc(O)c(OCCCN3CCCC3)c(O)c12 | > 100 | > 100 | > 100 | 
23 | O=c1cc(-c2ccccc2)oc2cc(O)c(OCCCCN3CCCC3)c(O)c12 | > 100 | 86.4 | 51 | 
24 | CN(C)CCCOc1c(OCc2ccccc2)cc2oc(-c3ccccc3)cc(=O)c2c1O | 2.2 | 5.5 | 2.6 | 
25 | COc1cc2oc(-c3ccccc3)cc(=O)c2c(O)c1OCCCCN1CCN(C)CC1 | 36.7 | 53.5 | 32 | 
26 | O=c1cc(-c2ccccc2)oc2cc(OCc3ccccc3)c(OCCCCN3CCCCC3)c(O)c12 | 2.4 | 3 | 1.9 | 
27 | O=c1cc(-c2ccccc2)oc2cc(O)c(OCCCN3CCCCC3)c(O)c12 | 70.6 | 60.9 | > 100 | 
28 | COc1cc2oc(-c3ccccc3)cc(=O)c2c(O)c1OCCCN1CCN(C)CC1 | 15.1 | 31.3 | 18 | 
29 | COc1cc2oc(-c3ccccc3)cc(=O)c2c(O)c1OCCCN1CCCC1 | 4.3 | 6.5 | 6 | 
30 | O=c1cc(-c2ccccc2)oc2cc(O)c(OCCCCN3CCOCC3)c(O)c12 | 67.2 | 58.7 | > 100 | 

From ChEMBL document CHEMBL3120064, “Synthesis and biological evaluation of baicalein derivatives as potent antitumor agents” (Bioorg Med Chem Lett, 2014)
